Here are results for 5 compounds from article PMC9870012 (Journal of Enzyme Inhibition and Medicinal Chemistry, 2023).

Data set [1] deals with T1, human meprin β (Homo sapiens, UniProt Q16820).
T1 sequence (Q16820 62-701): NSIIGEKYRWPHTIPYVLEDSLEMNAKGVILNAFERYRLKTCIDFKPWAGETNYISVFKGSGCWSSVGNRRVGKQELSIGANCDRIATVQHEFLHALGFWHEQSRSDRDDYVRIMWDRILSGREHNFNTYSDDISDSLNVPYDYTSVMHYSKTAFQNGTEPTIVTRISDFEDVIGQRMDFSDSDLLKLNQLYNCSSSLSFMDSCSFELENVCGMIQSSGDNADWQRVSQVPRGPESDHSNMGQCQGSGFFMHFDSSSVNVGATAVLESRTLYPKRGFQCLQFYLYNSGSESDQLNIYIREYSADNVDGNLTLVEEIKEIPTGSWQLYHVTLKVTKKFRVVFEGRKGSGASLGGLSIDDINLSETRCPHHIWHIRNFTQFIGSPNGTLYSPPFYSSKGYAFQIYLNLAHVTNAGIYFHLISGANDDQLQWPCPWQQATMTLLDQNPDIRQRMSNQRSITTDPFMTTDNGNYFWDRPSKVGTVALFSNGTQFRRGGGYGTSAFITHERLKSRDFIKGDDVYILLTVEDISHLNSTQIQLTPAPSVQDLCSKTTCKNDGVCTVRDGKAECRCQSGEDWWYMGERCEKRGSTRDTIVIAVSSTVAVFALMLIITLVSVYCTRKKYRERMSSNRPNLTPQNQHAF
Type of data set: biochemical. The conditions noted are these: for Ki: Ki(app) Meprin β, geometric mean of three independent experiments with standard deviation factor; for fold increase in potency against meprin β: compared to 21e.

A short description of data set [2]: Cell viability assay. The conditions noted are these: human, SH-SY5Y cells. The class given is cell-based.
Data set [3] addresses ADAM17 (Homo sapiens, UniProt P78536). The experiment in a line: Off-target metalloprotease inhibition, ADAM17. Type of data set: biochemical. The conditions noted are these: for remaining activity at 10 µM: read-out: Residual activity ADAM17.
In data set [4] the target is MMP9 (Homo sapiens, UniProt P14780). The data set can be described thus: Off-target metalloprotease inhibition, MMP9. The class given is biochemical. The conditions noted are these: read-out: Residual activity MMP9.
Chain of MMP9 (P14780 107-707 limits assumed): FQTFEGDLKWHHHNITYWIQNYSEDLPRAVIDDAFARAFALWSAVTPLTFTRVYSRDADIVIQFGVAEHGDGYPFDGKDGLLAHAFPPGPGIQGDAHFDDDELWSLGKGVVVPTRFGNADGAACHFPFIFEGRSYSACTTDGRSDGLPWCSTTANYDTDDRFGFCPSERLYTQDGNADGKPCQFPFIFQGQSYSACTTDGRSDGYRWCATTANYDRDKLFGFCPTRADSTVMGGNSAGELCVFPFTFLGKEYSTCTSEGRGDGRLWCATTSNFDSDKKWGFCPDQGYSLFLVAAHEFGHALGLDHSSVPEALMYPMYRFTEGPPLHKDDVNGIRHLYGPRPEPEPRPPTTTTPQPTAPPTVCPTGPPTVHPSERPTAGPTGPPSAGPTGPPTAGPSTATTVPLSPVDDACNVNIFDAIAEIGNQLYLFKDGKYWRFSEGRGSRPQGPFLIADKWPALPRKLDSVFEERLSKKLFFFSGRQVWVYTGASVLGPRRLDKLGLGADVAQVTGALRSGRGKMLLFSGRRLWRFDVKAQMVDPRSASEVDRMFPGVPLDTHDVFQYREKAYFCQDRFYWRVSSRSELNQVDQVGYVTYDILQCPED
Data set [5] addresses T2, human meprin α (Homo sapiens, UniProt Q16819).
T2 sequence (Q16819 66-746): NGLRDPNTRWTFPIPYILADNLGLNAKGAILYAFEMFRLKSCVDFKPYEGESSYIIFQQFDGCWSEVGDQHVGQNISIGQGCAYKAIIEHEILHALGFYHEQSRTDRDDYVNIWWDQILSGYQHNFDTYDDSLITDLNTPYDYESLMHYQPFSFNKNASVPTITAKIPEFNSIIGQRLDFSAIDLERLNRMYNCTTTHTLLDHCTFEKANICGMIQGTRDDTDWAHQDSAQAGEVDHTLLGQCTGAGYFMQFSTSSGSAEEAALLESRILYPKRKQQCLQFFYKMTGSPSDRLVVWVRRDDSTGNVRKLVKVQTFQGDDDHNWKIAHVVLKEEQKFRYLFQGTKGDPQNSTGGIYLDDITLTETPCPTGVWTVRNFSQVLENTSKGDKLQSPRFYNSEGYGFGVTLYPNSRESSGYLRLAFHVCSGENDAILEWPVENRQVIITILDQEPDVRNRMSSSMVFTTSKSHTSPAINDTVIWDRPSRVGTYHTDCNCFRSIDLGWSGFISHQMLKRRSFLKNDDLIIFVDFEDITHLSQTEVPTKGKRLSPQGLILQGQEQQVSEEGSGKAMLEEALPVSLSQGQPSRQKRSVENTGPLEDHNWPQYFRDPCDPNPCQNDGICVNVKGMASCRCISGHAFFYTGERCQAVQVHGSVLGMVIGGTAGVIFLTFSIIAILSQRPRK
Type of data set: biochemical. The conditions noted are these: for Ki: Ki(app) Meprin α, geometric mean of three independent experiments with standard deviation factor; for SF: selectivity factor (Ki(app) meprin β/Ki(app) meprin α): meprin α over meprin β.

In data set [6] the target is T3, ADAM10 (Homo sapiens, UniProt O14672).
T3 sequence (O14672 214-748): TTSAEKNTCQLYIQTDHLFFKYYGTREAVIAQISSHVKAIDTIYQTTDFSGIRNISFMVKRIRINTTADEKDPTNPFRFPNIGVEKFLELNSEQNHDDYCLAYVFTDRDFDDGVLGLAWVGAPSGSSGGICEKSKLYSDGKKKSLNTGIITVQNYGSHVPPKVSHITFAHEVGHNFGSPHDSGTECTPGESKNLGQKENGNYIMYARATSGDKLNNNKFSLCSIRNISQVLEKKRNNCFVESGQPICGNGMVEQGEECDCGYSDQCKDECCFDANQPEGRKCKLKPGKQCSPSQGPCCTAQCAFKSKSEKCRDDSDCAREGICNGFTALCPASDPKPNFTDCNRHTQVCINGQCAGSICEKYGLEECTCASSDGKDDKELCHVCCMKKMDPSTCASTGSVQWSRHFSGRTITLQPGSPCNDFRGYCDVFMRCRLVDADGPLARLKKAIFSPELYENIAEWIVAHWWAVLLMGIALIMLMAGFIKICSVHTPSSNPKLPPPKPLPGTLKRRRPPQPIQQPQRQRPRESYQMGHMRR
The experiment in a line: Off-target metalloprotease inhibition, ADAM10. Type of data set: biochemical. The conditions noted are these: read-out: Residual activity ADAM10.

Data set [7] in a line: Cell viability assay. Type of data set: cell-based. The conditions noted are these: human, Hep-G2 cells.
Data set [8] concerns the target MMP13 (Homo sapiens, UniProt P45452). The data set can be described thus: Off-target metalloprotease inhibition, MMP13. The class given is biochemical. The conditions noted are these: read-out: Residual activity MMP13.
The target in data set [9] is T4, MMP2 (Homo sapiens, UniProt P08253).
T4 sequence (P08253 110-660): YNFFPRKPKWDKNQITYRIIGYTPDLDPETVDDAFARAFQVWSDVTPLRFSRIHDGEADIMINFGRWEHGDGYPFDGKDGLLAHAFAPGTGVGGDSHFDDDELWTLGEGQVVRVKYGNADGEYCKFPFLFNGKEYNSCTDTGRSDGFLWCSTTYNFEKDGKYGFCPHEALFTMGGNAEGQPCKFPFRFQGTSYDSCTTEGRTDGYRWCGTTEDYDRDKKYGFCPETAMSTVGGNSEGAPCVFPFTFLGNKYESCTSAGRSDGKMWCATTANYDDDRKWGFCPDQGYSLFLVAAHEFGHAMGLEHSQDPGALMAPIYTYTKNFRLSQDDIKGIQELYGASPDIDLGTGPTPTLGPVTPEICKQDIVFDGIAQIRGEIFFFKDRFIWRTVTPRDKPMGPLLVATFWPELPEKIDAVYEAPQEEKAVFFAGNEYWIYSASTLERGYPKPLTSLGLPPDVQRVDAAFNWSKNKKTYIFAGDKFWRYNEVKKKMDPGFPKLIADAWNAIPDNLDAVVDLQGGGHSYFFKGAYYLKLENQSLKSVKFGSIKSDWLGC
The experiment in a line: Off-target metalloprotease inhibition, MMP2. The conditions noted are these: read-out: Residual activity MMP2. Type of data set: biochemical.

Chain of ADAM17 (P78536 215-824): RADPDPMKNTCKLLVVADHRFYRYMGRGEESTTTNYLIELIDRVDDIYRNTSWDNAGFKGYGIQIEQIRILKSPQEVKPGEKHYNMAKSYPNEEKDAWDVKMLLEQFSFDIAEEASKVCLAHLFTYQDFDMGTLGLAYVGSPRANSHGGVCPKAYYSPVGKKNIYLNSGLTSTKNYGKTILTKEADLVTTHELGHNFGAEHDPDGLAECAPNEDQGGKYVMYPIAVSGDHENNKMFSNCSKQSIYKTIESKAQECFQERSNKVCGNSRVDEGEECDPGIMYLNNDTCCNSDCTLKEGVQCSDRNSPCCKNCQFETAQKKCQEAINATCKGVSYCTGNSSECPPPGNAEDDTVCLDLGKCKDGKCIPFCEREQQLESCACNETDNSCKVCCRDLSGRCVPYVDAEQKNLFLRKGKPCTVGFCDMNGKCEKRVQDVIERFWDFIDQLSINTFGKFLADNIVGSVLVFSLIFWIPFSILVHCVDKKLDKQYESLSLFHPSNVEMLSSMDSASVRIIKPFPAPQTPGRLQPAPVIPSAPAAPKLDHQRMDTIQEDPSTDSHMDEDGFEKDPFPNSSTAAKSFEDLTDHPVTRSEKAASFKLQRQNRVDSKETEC

The viability is a read-out of living cells in per cent, often relative to untreated cells. Take `O=C(Cc1c(-c2ccccc2)nn(Cc2cccc(C(=O)O)c2)c1-c1ccccc1)NO` [21g, 3-[[4-[2-(Hydroxyamino)-2-oxo-ethyl]-3,5-diphenyl-pyrazol-1-yl]methyl]benzoic acid]: the Ki in data set [1] turned out to be 10.6 nM; in data set [5], 0.3 nM. In addition, the “fold increase in potency against meprin β” value in data set [1] amounted to 30 fold. In addition, the viability at 24 h, 30 µM came out at 85% in [2] and 99% in [7]. Further, the remaining activity at 10 µM in data set [3] came out at 84%; in [4] it was 83%; in data set [6] it was 92%; in [8], 83%; in [9], 89%. The “fold improved activity against meprin α” value in [5] (compared to 21e) came to 3 fold. Moreover, the “SF: selectivity factor (Ki(app) meprin β/Ki(app) meprin α)” value (“SF: selectivity factor” below) in data set [5] is given as 35.

For the compound `O=C(Cc1c(-c2ccccc2)nn(Cc2ccc(Cl)c(O)c2F)c1-c1ccccc1)NO` [21i, 2-[1-[(4-Chloro-2-fluoro-3-hydroxy-phenyl)methyl]-3,5-diphenyl-pyrazol-4-yl]ethane-hydroxamic acid], the Ki in data set [1] stood at 9.3 nM. Also, the viability at 24 h, 30 µM in [2] was 79%; in data set [7] it was 107%. The remaining activity at 10 µM in data set [3] amounted to 72%; in data set [4], 70%; in data set [6], 85%; in data set [8], 84%; in data set [9], 69%. For the same compound, in data set [5], the “SF: selectivity factor” value is on record as 116.

With `O=C(Cc1c(-c2cc(F)c(O)c(Cl)c2)n[nH]c1-c1ccccc1)NO` [14m, 2-[3-(3-Chloro-5-fluoro-4-hydroxyphenyl)-5-phenyl-1H-pyrazol-4-yl]ethanehydroxamic acid], the Ki was determined as 0.4 nM in data set [1] and 0.1 nM in data set [5]. Further, the values for the viability at 24 h, 30 µM in data set [2] and in data set [7] were 86% and 103%, respectively. Moreover, the remaining activity at 10 µM in [3] was determined as 68%; in data set [4], 86%; in data set [6] it was 104%; in data set [8], 88%; in data set [9], 66%. The “SF: selectivity factor” value in data set [5] stood at 3.

Regarding `O=C(Cc1c(-c2ccccc2)nn(Cc2ccc(C(=O)O)cc2)c1-c1ccccc1)NO` [21h, 4-[[4-[2-(Hydroxyamino)-2-oxo-ethyl]-3,5-diphenyl-pyrazol-1-yl]methyl]benzoic acid], the figures for the Ki in data set [1] and in data set [5] were 9.4 nM and 0.4 nM, respectively. In data set [1], the “fold increase in potency against meprin β” value worked out at 30 fold. In addition, the viability at 24 h, 30 µM in [2] worked out at 88%; in data set [7], 103%. Moreover, the remaining activity at 10 µM in data set [3] was 67%; in [4], 80%; in data set [6], 91%; in data set [8], 86%; in [9] it was 85%. In [5], the “SF: selectivity factor” value is listed as 24.

What is called IC50 is the concentration that inhibits the measured activity by half. Lower therefore signals higher potency. `O=C(Cc1c(-c2ccccc2)nn(Cc2ccc3c(c2)OCO3)c1-c1ccccc1)NO` [21f, 2-[1-(1,3-Benzodioxol-5-ylmethyl)-3,5-diphenyl-pyrazol-4-yl]ethanehydroxamic acid]: the viability at 24 h, 30 µM in [2] was 88%; in [7] it was 103%. This compound displayed an IC50 in data set [3] of 2300 nM. Moreover, the remaining activity at 10 µM in data set [3] amounted to 21%; in data set [4], 74%; in data set [6] it was 69%; in data set [8], 78%; in [9] it was 77%. This compound also yielded a Ki in data set [5] of 0.6 nM. The “SF: selectivity factor” value in data set [5] is 508.
